{"source": "patent US12377077B2", "about": "“Methods and formulations to treat mitochondrial dysfunction” (The Board of Trustees of the Leland Stanford Junior …, priority 2018, dated 2025)", "key": {"CI-deficient fibroblasts [1]": {"system": "CI-deficient fibroblasts", "experiment": "Cell viability by Calcein AM in mitochondrial stressor media", "format": "cell-based, human", "conditions": "FIG. 2C", "protocol": "(§1) Fibroblasts previously derived from four patients with primary mitochondrial disease (Surf1, Complex I, Cox10, Polg), three patients with NGLY1 deficiency and four normal controls were used for the study. All samples were obtained with informed consent and approved by the Stanford IRB. Fibroblasts were maintained in DMEM medium containing 8.3 mM glucose and supplemented with 10% fetal bovine serum (FBS)(Fisher Scientific), 1% Penicillin-Streptomycin (10,000 U/mL)(Life Technologies), 1% glutaMAX (Life Technologies), 1% uridine (5 mg/ml) and 1% pyruvate (11 mg/ml) at 37° C., 5% CO2.\n(§2) For the screening of various compounds, 15×10^3 cells/500 ul media were seeded in quadruplets on 24 well microtiter plates. The following day, the medium was removed, wells washed with PBS and replaced with a mitochondrial stressor media containing DMEM, 1% Penicillin-Streptomycin (10,000 U/mL)(Life Technologies), 10% FCS (Fisher Scientific), 1 mM Galactose (Sigma Aldrich), and 25 μM sodium azide with or without the following compounds: 1 mM AICAR (Medchem Express), 1 mM Metformin (Sigma Aldrich), 100 μM PT1 (Santa Cruz Biotechnology), 100 μM A-769662 (Medchem Express), 100 μM C24 (Medchem Express). Following treatment with the various compounds, tissue cultures were analyzed for growth, oxygen consumption rate, and ATP levels.\n(§3) Methods: Cell growth was measured by a fluorometric method using Calcein AM (Anaspec). Mitochondrial stressor media was removed, wells washed with PBS and then incubated with 500 ul/well of 800 nM Calcein AM in PBS for 30 min at 37 C, 5% CO2. Cell viability was measured by values obtained using a 485 nm excitation with the Flouroskan Ascent Microplate Fluorometer (Thermo Scientific)."}, "[2]": {"system": "NGLY1 deficient fibroblasts", "experiment": "Cell viability by Calcein AM in mitochondrial stressor media", "format": "cell-based, human", "conditions": "NGLY-1 deficient fibroblasts from three individuals; +PT1 vs −PT1; FIG. 2E", "protocol": "as §1, §2, §3"}, "[3]": {"system": "POLG-deficient fibroblasts", "experiment": "Cellular morphology by phase-contrast microscopy", "format": "cell-based, human", "conditions": "vs untreated", "source_text": "(§4) Fibroblasts in tissue culture were visualized by phase-contrast microscopy with a Leica DM IRB microscope at ×10 magnification, and images were taken with the Hamamatsu ORCA-ER camera."}, "CI-deficient fibroblasts [4]": {"system": "CI-deficient fibroblasts", "experiment": "Cellular morphology by phase-contrast microscopy", "format": "cell-based, human", "conditions": "vs untreated", "source_text": "as §4"}, "[5]": {"system": "NGLY1 deficient fibroblasts", "experiment": "Cellular morphology by phase-contrast microscopy", "format": "cell-based, human", "conditions": "NGLY-1 deficient fibroblasts; vs untreated", "source_text": "as §4"}, "[6]": {"system": "SURF1-deficient fibroblasts", "experiment": "Cellular morphology by phase-contrast microscopy", "format": "cell-based, human", "conditions": "vs DMSO", "source_text": "as §4"}, "[7]": {"system": "COX10-deficient fibroblasts", "experiment": "Cellular morphology by phase-contrast microscopy", "format": "cell-based, human", "conditions": "vs untreated", "source_text": "as §4"}, "[8]": {"system": "POLG deficient fibroblasts", "experiment": "ROS levels, CellROX Deep Red Flow Cytometry Assay", "format": "cell-based, human", "conditions": "PT1 72 hrs vs DMSO", "protocol": "(§5) Methods: SURF1, POLG, and NGLY1 patient cells were supplemented with PT1 or DMSO (untreated control) for 48 hrs (n=3) and ATP levels measured by the CellTiter-Glo ATP Assay or for 72 hrs (n=3) and ROS levels were measured by the CellROX Deep Red Flow Cytometry Assay. Results were normalized to total protein concentration. Data are represented as the mean±standard error of the mean. Statistical significance was measured to p<0.05."}, "[9]": {"system": "SURF1 deficient fibroblasts", "experiment": "ROS levels, CellROX Deep Red Flow Cytometry Assay", "format": "cell-based, human", "conditions": "PT1 72 hrs vs DMSO", "protocol": "as §5"}, "[10]": {"system": "NGLY1 deficient fibroblasts", "experiment": "ROS levels, CellROX Deep Red Flow Cytometry Assay", "format": "cell-based, human", "conditions": "PT1 72 hrs vs DMSO", "protocol": "as §5"}, "[11]": {"system": "NGLY1 deficient fibroblasts", "experiment": "Oxygen consumption rate (OCR), XF96 extracellular flux analyzer", "format": "cell-based, human", "conditions": "PT1 vs DMSO, FIG. 6C", "protocol": "Methods: Oxygen consumption rate (OCR) was measured using an XF96 extracellular flux analyzer (Seahorse Biosciences). Fibroblasts were seeded at 10×10^3 cell/well in 100 ul media containing 8.3 mM glucose and supplemented with 10% fetal bovine serum (FBS) (Fisher Scientific), 1% Penicillin-Streptomycin (10,000 U/mL)(Life Technologies), 1% glutaMAX (Life Technologies), 1% uridine (5 mg/ml) and 1% pyruvate (11 mg/ml) on an XF 96 well plate at 37° C., 5% CO2. The following day the medium was replaced with the mitochondrial stressor media (details above) with or without PT1, A-769662, and AICAR. After 48 hours the stressor media was replaced with 175 μl unbuffered XF base DMEM medium (Fisher Scientific) with the same constituents as the mitochondrial stressor medium and incubated at 37° C. for 30 min for equilibrium before the measurements. OCR Baseline measurements were measured three times, once every five minutes. After the experiment, cell content was estimated by Calcein AM fluorescence intensity (FI) and OCR was calculated as OCR divided by FI."}, "[12]": {"system": "SURF1 deficient fibroblasts", "experiment": "ATP levels, CellTiter-Glo ATP Assay", "format": "cell-based, human", "conditions": "PT1 48 hrs vs DMSO", "protocol": "as §5"}, "[13]": {"system": "sodium iodate (SI) induced AMD model", "experiment": "Sodium iodate (SI) induced AMD model: funduscopy, H&E retinal sections, ONL thickness, ERG", "format": "in vivo, mice", "protocol": "Methods: To generate an AMD model, mice were treated with 100 mg/kg of PT1 (or vehicle) 24 hrs and 12 hrs prior to SI (or vehicle) treatment, then treated every 24 hrs for 3 days post-SI. Both PT1 and SI were delivered by intraperitoneal (IP) injections and animals were phenotyped 3 days post-SI administration. Mice were anesthetized and their pupils dilated using 1% atropine sulfate, 2.5% phenylephrine hydrochloride, and 0.5% proparacaine hydrochloride. Funduscopy was performed using the Micron III small animal retinal imaging AD camera (Phoenix Research Laboratories, INC). Retinal function was evaluated by recording of dark- and light-adapted ERG (Espion E2 System, Diagnosys LLC). Mice were dark adapted overnight before ERG recording, and all procedures were performed in the dark or under dim red light. Mice were anesthetized and their pupils dilated as described above. For the ERG recordings, electrodes were placed on the center of cornea. A ground needle electrode was placed in the base of the tail, and reference needle electrode was placed subdermally between the eyes. The a-wave amplitude was measured from the baseline to the trough of the a-wave, and b-wave amplitude was measured from the trough of the a-wave to the peak of the b-wave."}}, "note": "“Also recorded” adds a separate entry of the source.", "data": [{"smiles": "Cc1cc(-c2ccc(C=C3SC(=S)N(c4ccc(Cl)c(C(=O)O)c4)C3=O)o2)c([N+](=O)[O-])cc1C", "note": "[PT1]", "values": [{"measurement": "survival / viability", "setting": "CI-deficient fibroblasts [1]", "value": "improves survival; also recorded: significantly improved survival"}, {"measurement": "improvement in viability", "setting": "[2]", "value": "≤ 60% and up to 60%"}, {"measurement": "cellular morphology", "setting": "[3]", "value": "cell morphology improved"}, {"measurement": "cellular morphology", "setting": "CI-deficient fibroblasts [4]", "value": "cell morphology improved"}, {"measurement": "cellular morphology", "setting": "[5]", "value": "cell morphology improved"}, {"measurement": "cellular morphology", "setting": "[6]", "value": "improved cellular morphology; also recorded: cell morphology improved"}, {"measurement": "cellular morphology", "setting": "[7]", "value": "cell morphology improved"}, {"measurement": "reduction in ROS levels", "setting": "[8]", "value": 15, "unit": "%"}, {"measurement": "reduction in ROS levels", "setting": "[9]", "value": 10, "unit": "%"}, {"measurement": "reduction in ROS levels", "setting": "[10]", "value": 18, "unit": "%"}, {"measurement": "improvement in basal respiration (basal OCR)", "setting": "[11]", "value": 16, "unit": "%"}, {"measurement": "increase in ATP production / content", "setting": "[12]", "value": 35, "unit": "%"}, {"measurement": "funduscopy, signs of retinal degeneration (white deposits)", "setting": "[13]; +SI, +PT1 vs +SI, 100 mg/kg IP, FIG. 9A, 100 mg/kg", "value": "improved signs of retinal degeneration; also recorded: Fewer white deposits"}, {"measurement": "H&E retinal sections: ONL thinning", "setting": "[13]; +SI, +PT1 vs +SI, FIG. 9B", "value": "protection against ONL thinning; also recorded: protects against ONL thinning"}, {"measurement": "H&E retinal sections: melanin debris", "setting": "[13]; +SI, +PT1 vs +SI, FIG. 9B", "value": "decreases melanin debris"}, {"measurement": "H&E retinal sections: photoreceptor IS/OS morphology", "setting": "[13]; +SI, +PT1 vs +SI, FIG. 9B", "value": "prevents alterations in photoreceptor IS/OS morphology"}, {"measurement": "ONL thickness", "setting": "[13]; +SI, +PT1 vs +SI, FIG. 9C", "value": "greater thickness; also recorded: significantly improved"}, {"measurement": "electroretinography, rod responses (scotopic a-wave and b-wave)", "setting": "[13]; +SI, +PT1 vs +SI, FIG. 9D", "value": "improved electrical response; also recorded: significantly increased rod responses"}, {"measurement": "ONL thickness, PT1 treatment alone", "setting": "[13]; −SI, +PT1 vs −SI", "value": "does not alter ONL thickness"}, {"measurement": "funduscopy, PT1 treatment alone", "setting": "[13]; −SI, +PT1 vs −SI", "value": "similar, normal tissue; also recorded: does not alter funduscopy results"}]}]}
